Common to all, as to assay type: cell-based
Experiment [1] concerns Staphylococcus aureus ATCC 33591 (MRSA). Put plainly: Antibacterial broth microdilution assay (MIC), MRSA ATCC 33591. As to conditions: amount inhibiting >95% of growth (A600), 18 h, suffix 'I' = partial growth inhibition at the value, >95% at higher concentrations; for MIC: Staphylococcus aureus, read-out: MIC ATCC 33591. As for the experimental part: (§1) These 24 DHP analogues were then screened for inhibition of Staphylococcus aureus growth using microdilution assays. Growth inhibition was examined in methicillin-sensitive S. aureus (ATCC 12600) and two strains of MRSA (ATCC 33591 and ATCC 43300). Antibiotic controls were included in the screen, including carbenicillin, erythromycin, gentamycin, trimethoprim, and vancomycin, and minimum inhibitory concentrations (MICs) were determined for each compound, which were defined as the concentration required to inhibit >95% of bacterial growth (Table 1).
(§2) Antibacterial Microdilution Assay (MIC Determination)
(§3) 1240 The MIC determination assays were performed in a BSL-2 laboratory with appropriate security and biosafety measures. The MICs were determined using a broth microdilution assay closely following the guidelines of the Clinical and Laboratories Standards Institute (CLSI). MICs were determined in duplicate for two biological replicates using 2-fold serial dilutions of test compounds or commercial antibiotics in cation-adjusted Mueller-Hinton broth. The central 60 wells of 96-well plates were 1245 prepared with the compound of interest at the indicated concentration, where 2 µL of the compound in DMSO were added prior to the addition of the culture. Overnight cultures of the different Staphylococcus aureus strains were diluted to provide an initial inoculum of approximately 5 X 10 5 CFU/mL that was delivered to each well in 198 µL of culture (final DMSO concentration of ~1%). Initial inoculum concentrations were verified by plating to count CFU/mL. Each plate was equipped with 1250 experimental controls for full growth (6 wells) and full growth inhibition (6 wells), and all control wells were in the presence of 1% DMSO. The outer 36 wells were filled with 200 µL of culture each to prevent growth effects on the interior 60 wells. The plates were incubated at 37 °C for 18 hours, at which time they were removed from the incubator and were allowed to equilibrate to room temperature for 30 minutes. Absorbance of each well at 600 nm was then read using a microplate reader to 1255 determine the MIC, and visual confirmation of growth inhibition was also performed. If variation was seen in the experimental values, the highest value of two independent trials was listed.
For orientation: Broth dilution looks for growth in wells or tubes with falling amounts of substance.

In experiment [2] the test system is Staphylococcus aureus ATCC 12600. Nature of the experiment: Antibacterial broth microdilution assay (MIC), methicillin-sensitive S. aureus ATCC 12600. The following applies: amount inhibiting >95% of growth (A600), 18 h, suffix 'I' = partial growth inhibition at the value, >95% at higher concentrations; for MIC: Staphylococcus aureus, ATCC12600, read-out: MIC ATCC 12600. As to the method:
as §1, §2, §3

The test system of experiment [3] is Staphylococcus aureus ATCC 43300 (MRSA). Nature of the experiment: Antibacterial broth microdilution assay (MIC), MRSA ATCC 43300. The following applies: amount inhibiting >95% of growth (A600), 18 h, suffix 'I' = partial growth inhibition at the value, >95% at higher concentrations; for MIC: Staphylococcus aureus, read-out: MIC ATCC 43300. As to the method: as §1, §2, §3

In a further experiment the test system is Staphylococcus aureus. Nature of the experiment: S. aureus growth inhibition (all three strains or strain not specified). The following applies: MIC comparison, Table 3. As for the experimental part:
as §1, §2, §3

≈ marks a conversion by molar mass, not a printed value. Bounds are passed on as bounds.

What is called MIC is the smallest concentration in the dilution series that meets the test's criterion for growth inhibition.

For `CCOC(=O)C1=C(c2ccccc2)NC(N)=NC1c1ccccc1[N+](=O)[O-]` (stereo not shown) [6a], the minimal inhibitory concentration (MIC) in experiment [1], in experiment [2] and in experiment [3] was above 64 µg/mL in each case.
For the compound `C#CCCOC(=O)C1=C(c2ccccc2)NC(N)=NC1c1ccc(C2(C(F)(F)F)N=N2)cc1` (stereo not shown) [26e], the “antibacterial potency of alkynyl esters compared to their ethyl variants” value in the experiment on Staphylococcus aureus is on record as 2-fold decreased potency. The minimal inhibitory concentration (MIC) in experiment [2] and in experiment [3] was 8 µg/mL (≈ 17.6 µM) each time.
`CCOC(=O)C1=C(c2ccc(C3(C(F)(F)F)N=N3)cc2)NC(N)=NC1c1ccc(CC(C)C)cc1` (stereo not shown) [26c]: the MIC in experiment [2] and in experiment [3] was 2 µg/mL (≈ 4.12 µM) in each case.
`CCOC(=O)C1=C(c2ccccc2)NC(N)=NC1c1cccc(C(F)(F)F)c1` (stereo not shown) [6d]: the minimal inhibitory concentration (MIC) in experiment [1], in experiment [2] and in experiment [3] was 32 µg/mL (≈ 82.2 µM) each time.
Consider `CCOC(=O)C1=C(c2cccc(C)c2)NC(N)=NC1c1ccc(CC(C)C)cc1` (stereo not shown) [7j], for which the MIC in experiment [1], in experiment [2] and in experiment [3] was 4 µg/mL (≈ 10.2 µM) each time.
In the case of `CCOC(=O)C1=C(c2ccccc2)NC(N)=NC1c1cccc([N+](=O)[O-])c1` (stereo not shown) [6b], the MIC in experiment [2] came to 64 µg/mL (≈ 175 µM).
In the case of `CCOC(=O)C1=C(c2ccccc2)NC(N)=NC1c1cc(OC)cc(OC)c1` (stereo not shown) [6v], the MIC in experiment [1], in experiment [2] and in experiment [3] was above 64 µg/mL each time.
Take `CCOC(=O)C1=C(c2ccccc2)NC(N)=NC1c1ccccc1F` (stereo not shown) [6f]: the MIC in experiment [1], in experiment [2] and in experiment [3] was above 64 µg/mL throughout.
In the case of `CCOC(=O)C1=C(c2ccccc2)NC(N)=NC1c1ccc([N+](=O)[O-])cc1` (stereo not shown) [6c], the MIC in experiment [1], in experiment [2] and in experiment [3] was 64 µg/mL (≈ 175 µM) each time.
Turning to `CC1(C)S[C@@H]2[C@H](NC(=O)C(C(=O)O)c3ccccc3)C(=O)N2[C@H]1C(=O)O` (stereo partly shown) [carbenicillin, reference compound], the figures for the MIC in experiment [1], in experiment [2] and in experiment [3] were 128 µg/mL (≈ 338 µM), 2 µg/mL (≈ 5.29 µM) and 32 µg/mL (≈ 84.6 µM), respectively.
Take gentamycin [reference compound]: the “MIC ATCC 33591” value in experiment [1] turned out to be 4 µg/mL. The “MIC ATCC 12600” value in experiment [2] came to 4 µg/mL. Further, the “MIC ATCC 43300” value in experiment [3] stood at 128 µg/mL.
With `CCOC(=O)C1=C(c2ccccc2)NC(N)=NC1c1ccc(C(F)(F)F)cc1` (stereo not shown) [6e], the minimal inhibitory concentration (MIC) in experiment [1], in experiment [2] and in experiment [3] was 16 µg/mL (≈ 41.1 µM) each time.
In the case of `CCOC(=O)C1=C(c2ccccc2)NC(N)=NC1c1ccc(C)c(C)c1` (stereo not shown) [6p], the MIC in experiment [3] was 32 µg/mL (≈ 91.6 µM).
In the case of `CCOC(=O)C1=C(c2ccc(C3(C(F)(F)F)N=N3)cc2)NC(N)=NC1c1cc(Cl)cc(Cl)c1` (stereo not shown) [26b], the MIC in experiment [2] and in experiment [3] was 4 µg/mL (≈ 8.03 µM) each time.
For `CC[C@H]1OC(=O)[C@H](C)[C@@H](O[C@H]2C[C@@](C)(OC)[C@@H](O)[C@H](C)O2)[C@H](C)[C@@H](O[C@@H]2O[C@H](C)C[C@H](N(C)C)[C@H]2O)[C@](C)(O)C[C@@H](C)C(=O)[C@H](C)[C@@H](O)[C@]1(C)O` [erythromycin, reference compound], the MIC was above 512 µg/mL in experiment [1], 0.5 µg/mL (≈ 0.681 µM) in experiment [2] and above 512 µg/mL in experiment [3].
Regarding `CCOC(=O)C1=C(c2ccccc2)NC(N)=NC1c1cccc(OC)c1` (stereo not shown) [6t], the MIC in experiment [1], in experiment [2] and in experiment [3] was above 64 µg/mL throughout.
Regarding `CCOC(=O)C1=C(c2ccccc2)NC(N)=NC1c1ccc(C2(C(F)(F)F)N=N2)cc1` (stereo not shown) [26a], the MIC in experiment [2] and in experiment [3] was 4 µg/mL (≈ 9.32 µM) throughout.
On to `CCOC(=O)C1=C(c2ccccc2)NC(N)=NC1c1ccc(C)cc1` (stereo not shown) [6m], for which the MIC in experiment [1], in experiment [2] and in experiment [3] was above 64 µg/mL throughout.
`CCOC(=O)C1=C(c2ccccc2)NC(N)=NC1c1cc(C)cc(C)c1` (stereo not shown) [6q]: the MIC in experiment [1], in experiment [2] and in experiment [3] was above 64 µg/mL throughout.
With `CCOC(=O)C1=C(CC)NC(N)=NC1c1ccc(-c2ccccc2)cc1` (stereo not shown) [7d], the MIC in experiment [1] came out at 8 µg/mL (≈ 22.9 µM).
Still for that read-out and setting: next, `CCOC(=O)C1=C(c2ccccc2)NC(N)=NC1c1c(C)cccc1C` (stereo not shown) [6n]: 64 µg/mL (≈ 183 µM).

These data come from publication PMC11247627, “Evaluation of Antibacterial Functionalized Dihydropyrimidine Photoaffinity Probes Toward Mechanism of Action Studies” (ACS Medicinal Chemistry Letters, 2024).
